Source: ChEMBL document CHEMBL5154655, “Identification of indole-based activators of insulin degrading enzyme” (Eur J Med Chem, 2022)
Values after ≈ are worked out from the molar mass of the structure shown.

How the values were obtained:
[1] = Solubility of the compound at 100 uM; type: physicochemical
Insulin-degrading enzyme = target: T1, Insulin-degrading enzyme (Homo sapiens, UniProt P14735); test: Activation of human recombinant IDE using ATTO 655-Cys-Lys-Leu-Val-Phe-Phe-Ala-Glu-Asp-trp as substrate incubated for 10 mins followed by substrate addition and measured after 20 mins by fluorescence spectrophotometer analysis
T1 sequence (P14735 whole entry): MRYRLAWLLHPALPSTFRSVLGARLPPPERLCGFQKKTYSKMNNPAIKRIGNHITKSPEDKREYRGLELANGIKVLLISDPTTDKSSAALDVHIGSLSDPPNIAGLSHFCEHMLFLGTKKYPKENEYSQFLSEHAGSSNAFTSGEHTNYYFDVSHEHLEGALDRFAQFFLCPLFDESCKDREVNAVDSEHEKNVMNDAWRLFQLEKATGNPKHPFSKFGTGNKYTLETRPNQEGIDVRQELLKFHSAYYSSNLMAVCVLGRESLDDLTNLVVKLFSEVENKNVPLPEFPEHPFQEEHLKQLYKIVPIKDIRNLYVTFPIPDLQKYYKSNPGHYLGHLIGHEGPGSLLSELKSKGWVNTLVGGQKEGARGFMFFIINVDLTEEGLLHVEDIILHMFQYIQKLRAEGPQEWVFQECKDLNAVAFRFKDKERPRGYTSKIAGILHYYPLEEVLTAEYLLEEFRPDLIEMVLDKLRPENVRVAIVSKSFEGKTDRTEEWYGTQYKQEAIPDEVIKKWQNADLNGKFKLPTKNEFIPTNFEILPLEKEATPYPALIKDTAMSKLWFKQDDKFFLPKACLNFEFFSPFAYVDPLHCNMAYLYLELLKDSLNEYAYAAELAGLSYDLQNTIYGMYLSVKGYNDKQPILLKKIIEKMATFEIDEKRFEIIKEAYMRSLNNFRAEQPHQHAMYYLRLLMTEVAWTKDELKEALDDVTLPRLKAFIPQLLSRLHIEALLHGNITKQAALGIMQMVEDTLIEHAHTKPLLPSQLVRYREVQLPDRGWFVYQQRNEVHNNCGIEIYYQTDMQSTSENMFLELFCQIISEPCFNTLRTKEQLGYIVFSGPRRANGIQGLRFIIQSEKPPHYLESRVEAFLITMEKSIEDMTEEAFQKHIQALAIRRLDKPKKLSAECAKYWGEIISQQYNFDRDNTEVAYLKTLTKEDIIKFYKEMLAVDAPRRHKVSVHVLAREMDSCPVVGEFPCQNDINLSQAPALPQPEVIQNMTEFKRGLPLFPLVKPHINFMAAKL

[2] = Stability in rat plasma assessed as half life at 10 uM; type: ADME, cell-free
[3] = Lipophilicity, logD of the compound in 1-octanol and phosphate buffer at pH 7.4 incubated for 2 hrs under shaking condition by LC-MS/MS analysis; type: physicochemical; conditions: 1-octanol/phosphate buffer
[4] = Aqueous thermodynamic solubility of the compound in phosphate buffer/MeOH at pH 7.4 measured after 24 hrs by LC-MS/MS analysis; type: physicochemical; conditions: read-out: Therm_solubility
[5] = Dissociation constant, pKa of the compound; type: physicochemical
[6] = Solubility of the compound at 15 uM; type: physicochemical

Row | Compound | solubility [1] | EC50 (Insulin-degrading enzyme) | further results
1 | O=C(CCCc1cn(S(=O)(=O)c2ccc(F)cc2)c2ccccc12)NCCCn1ccnc1 | Insoluble | – | –
2 | O=C(CCc1cn(S(=O)(=O)c2ccccc2)c2ccccc12)NCCCn1ccnc1 | – | 15.5 µM | –
3 | O=C(CCCc1cn(S(=O)(=O)c2cccc(F)c2)c2ccccc12)NCCCn1ccnc1 | Insoluble | 10.2 µM | –
4 | CN(CCCn1ccnc1)C(=O)CCCc1cn(S(=O)(=O)c2ccccc2)c2ccccc12 | – | 14.1 µM | –
5 | O=C(CCCc1cn(C(=O)c2ccc(F)cc2)c2ccccc12)NCCCn1ccnc1 | Insoluble | – | –
6 | O=C(CCCc1cn(S(=O)(=O)c2cccs2)c2ccccc12)NCCCn1ccnc1 | – | – | half-life at 10 µM [2]: > 24 h; logD at 2 h [3]: 2.7; solubility thermodynamic at 24 h [4]: 8.9 µM (≈ 4.06 µg/mL)
7 | O=C(CCCc1nn(S(=O)(=O)c2ccccc2)c2ccccc12)NCCCn1ccnc1 | – | 12.3 µM | –
8 | O=C(CCCc1cn(S(=O)(=O)c2ccc(-c3ccccc3)cc2)c2ccccc12)NCCCn1ccnc1 | Insoluble | – | –
9 | O=C(CCCc1cn(C(=O)c2ccc(Cl)cc2)c2ccccc12)NCCCn1ccnc1 | Insoluble | – | –
10 | N[C@@H](Cc1cn(S(=O)(=O)c2ccccc2)c2ccccc12)C(=O)NCCCn1ccnc1 | – | 14.5 µM | –
11 | O=C(CCCc1cn(S(=O)(=O)c2ccccc2)c2ccccc12)NCCCc1c[nH]cn1 | – | – | pKa [5]: 7
12 | O=C(CCCc1cn(S(=O)(=O)c2cccnc2)c2ccccc12)NCCCn1ccnc1 | – | 26.9 µM | –
13 | O=C(NCCCn1ccnc1)NCCc1cn(S(=O)(=O)c2ccccc2)c2ccccc12 | – | 10.2 µM | –
14 | Cn1cnc(S(=O)(=O)n2cc(CCCC(=O)NCCCn3ccnc3)c3ccccc32)c1 | – | 28.8 µM | –
15 | O=C(CCCc1cn(S(=O)(=O)c2ccccc2F)c2ccccc12)NCCCn1ccnc1 | Insoluble | – | –
16 | O=C(CCCc1cn(-c2ccccc2)c2ccccc12)NCCCn1ccnc1 | Insoluble | – | –
17 | CS(=O)(=O)n1cc(CCCC(=O)NCCCn2ccnc2)c2ccccc21 | – | 26.9 µM | –
18 | O=C(CCCCc1cn(S(=O)(=O)c2ccccc2)c2ccccc12)NCCCn1ccnc1 | Insoluble | – | –
19 | O=C(CCCc1cn(S(=O)(=O)c2ccsc2)c2ccccc12)NCCCn1ccnc1 | – | 13.8 µM | –
20 | O=C(NCCCn1ccnc1)c1cn(S(=O)(=O)c2ccccc2)c2ccccc12 | Insoluble | – | –
21 | O=C(CCCc1cn(S(=O)(=O)c2ccccc2)c2ccccc12)NCCCN1CCCC1 | – | – | pKa [5]: 8.8
22 | O=C(CCCc1cn(S(=O)(=O)c2cccc3nsnc23)c2ccccc12)NCCCn1ccnc1 | Insoluble | – | –
23 | O=C(CCCC1C(=O)Nc2ccccc21)NCCCn1ccnc1 (stereo unspecified) | – | 38.9 µM | –
24 | O=C(CCCc1cn(C(=O)c2cccs2)c2ccccc12)NCCCn1ccnc1 | – | 21.4 µM | –
25 | O=C(CCCc1cn(S(=O)(=O)c2ccccc2)c2ccccc12)NCCCn1ccnc1 | – | 13.2 µM | solubility [6]: Soluble; logD at 2 h [3]: 2.7; pKa [5]: 6.9
